Data: publication PMC10397291, “Molecular pathway and structural mechanism of human oncochannel TRPV6 inhibition by the phytocannabinoid tetrahydrocannabivarin” (Nature Communications, 2023)
“Also recorded” adds a separate entry of the source.

Legend:
TRPV5 = test system: TRPV5; set-up: method as in PMID 30170189; details: at the tested doses; cited from earlier work
TRPV6 [1] = details: at the tested doses; cited from earlier work
L490W mutant hTRPV6 = target: T1, L490W mutant hTRPV6 (Homo sapiens, UniProt Q9H1D0, L530W); assay: Fura-2 AM Ca2+ uptake, L490W mutant hTRPV6; assay type: cell-based; details: L490W
T1 construct: Full-length wild-type or mutant human TRPV6 was expressed in HEK 293S cells as described above; expressed in transfected cells; host or cells: HEK 293S GnTI- (baculovirus/BacMam transduction)
T1 sequence (Q9H1D0 41-765 L530W limits assumed): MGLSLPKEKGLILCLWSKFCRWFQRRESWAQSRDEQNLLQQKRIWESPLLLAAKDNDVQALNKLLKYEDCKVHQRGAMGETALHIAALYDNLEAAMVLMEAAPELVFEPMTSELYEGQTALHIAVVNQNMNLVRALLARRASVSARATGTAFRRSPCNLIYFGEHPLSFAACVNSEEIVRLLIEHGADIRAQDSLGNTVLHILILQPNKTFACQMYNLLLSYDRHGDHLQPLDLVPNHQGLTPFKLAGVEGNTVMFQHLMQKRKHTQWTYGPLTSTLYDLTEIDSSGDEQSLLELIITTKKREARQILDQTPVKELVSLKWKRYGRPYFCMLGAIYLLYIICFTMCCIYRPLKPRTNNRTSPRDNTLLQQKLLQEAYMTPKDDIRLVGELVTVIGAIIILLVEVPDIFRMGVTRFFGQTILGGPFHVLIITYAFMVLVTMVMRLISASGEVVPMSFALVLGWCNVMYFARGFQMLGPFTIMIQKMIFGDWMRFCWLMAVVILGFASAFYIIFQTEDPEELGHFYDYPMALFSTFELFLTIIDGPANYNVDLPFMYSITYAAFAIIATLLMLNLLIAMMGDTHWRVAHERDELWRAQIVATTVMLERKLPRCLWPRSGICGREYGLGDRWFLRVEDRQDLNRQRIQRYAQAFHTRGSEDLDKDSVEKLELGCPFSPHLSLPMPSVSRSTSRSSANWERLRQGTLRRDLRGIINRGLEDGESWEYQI

TRPV6 [2] = test system: TRPV6; set-up: method as in doi:10.1038/nature17975; details: ref doi:10.1038/nature17975; cited from earlier work
[3] = target: C-terminally truncated human TRPV6 (hTRPV6-CtD, residues 1–666 of wild-type channel) (human); assay: cryo-EM structure; hTRPV6-CtD in cNW30 nanodiscs with soybean lipids, 114 µM THCV; 150 mM NaCl, 20 mM Tris-HCl pH 8.0, 1 mM βME; C4 symmetry, 2.79 Å
[4] = target: full-length human TRPV6 L490W mutant with C-terminal streptavidin affinity tag and eGFP (FSEC construct) (human); assay: SEC; fluorescence-detection SEC (FSEC) of eGFP-tagged channels; HEK cells solubilised in 1% DDM, 0.1% CHS, supernatant on Superose 6 10/300 GL in 1 mM DDM, 20 mM Tris-HCl pH 8.0, 150 mM NaCl, 1 mM βME
[5] = target: full-length wild-type human TRPV6 with C-terminal streptavidin affinity tag and eGFP (FSEC construct) (human); assay: as above

C=C(C)[C@@H]1CCC(C)=C[C@H]1c1c(O)cc(CCCCC)cc1O [CBD, cannabidiol]
antagonist effect on TRPV5 (TRPV5): ineffective | antagonist effect on TRPV6 (TRPV6 [1]): Lack of CBD effect; also recorded: do not modulate; also recorded: ineffective

[Gd+3] [Gd3+]
block of Ca2+ uptake (L490W mutant hTRPV6; 100 µM Gd3+): complete block | inhibition of calcium uptake (L490W mutant hTRPV6; 100 mM Gd3+ as printed, n = 3): complete inhibition | block of the calcium uptake signal (TRPV6 [2]): full block of the signal

C-terminally truncated human TRPV6 (hTRPV6-CtD, residues 1–666 of wild-type channel) (domain or fragment)
stoichiometry N [3]: 4

full-length human TRPV6 L490W mutant with C-terminal streptavidin affinity tag and eGFP (FSEC construct) (natural protein)
stoichiometry N [4]: 4

full-length wild-type human TRPV6 with C-terminal streptavidin affinity tag and eGFP (FSEC construct) (natural protein)
stoichiometry N [5]: 4
